Laboratory results: patent US6358885B1, “Substituted phenylheterocyclic herbicides” (Mississippi State University, priority 1992, dated 2002)

How the values were obtained:
Experiment in all cases: Test B preemergence/postemergence greenhouse plant response rating 0 to 10
Conditions in all cases: 0 to 10 scale
rape = assay type: in vivo, Brassica napus
Procedure, shortened: (§1)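 Test chemicals were sprayed onto freshly planted seed and, concurrently, onto young plants between the one and four leaf stage. After a twelve- to sixteen-day greenhouse period, each species was visually compared with untreated controls.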

sorghum = assay type: in vivo, Sorghum bicolor
Procedure, shortened: as §1

chickweed = assay type: in vivo, Stellaria media
Procedure, shortened: as §1

wheat = assay type: in vivo, Triticum aestivum
Procedure, shortened: as §1

purple nutsedge = assay type: in vivo, Cyperus rotundus
Procedure, shortened: as §1

soybean = assay type: in vivo, Glycine max
Procedure, shortened: as §1

cotton = assay type: in vivo, Gossypium hirsutum
Procedure, shortened: as §1

wild oat = assay type: in vivo, Avena fatua
Procedure, shortened: as §1

barley = assay type: in vivo, Hordeum vulgare
Procedure, shortened: as §1

cocklebur = assay type: in vivo, Xanthium pensylvanicum
Procedure, shortened: as §1

sugar beet = assay type: in vivo, Beta vulgaris
Procedure, shortened: as §1

cheatgrass = assay type: in vivo, Bromus secalinus
Procedure, shortened: as §1

giant foxtail = assay type: in vivo, Setaria faberii
Procedure, shortened: as §1

rice = assay type: in vivo, Oryza sativa
Procedure, shortened: as §1

corn = assay type: in vivo, Zea mays
Procedure, shortened: as §1

bedstraw = assay type: in vivo, Galium aparine
Procedure, shortened: as §1

morningglory = assay type: in vivo, Ipomoea hederacea
Procedure, shortened: as §1

wild buckwheat = assay type: in vivo, Polygonum convolvulus
Procedure, shortened: as §1

velvetleaf = assay type: in vivo, Abutilon theophrasti
Procedure, shortened: as §1

lambsquarters = assay type: in vivo, Chenopodium album
Procedure, shortened: as §1

blackgrass = assay type: in vivo, Alopecurus myosuroides
Procedure, shortened: as §1

crabgrass = assay type: in vivo, Digitaria spp.
Procedure, shortened: as §1

barnyardgrass = assay type: in vivo, Echinochloa crus-galli
Procedure, shortened: as §1

With CC(C#N)Oc1cc(-c2nn3c(c2Cl)CCCC3)c(F)cc1Cl (centres unmarked) [Compound 60] the “Plant response rating, Rape” value (rape; POSTEMERGENCE, Rate 10 g/ha) was 6, the “Plant response rating, Rape” value (rape; POSTEMERGENCE, Rate 50 g/ha) was 10 and the “Plant response rating, Rape” value (rape; PREEMERGENCE, Rate 50 g/ha) was 6. For the same compound, the “Plant response rating, Sorghum” value (sorghum; POSTEMERGENCE, Rate 10 g/ha) was 3, the “Plant response rating, Sorghum” value (sorghum; POSTEMERGENCE, Rate 50 g/ha) was 3 and the “Plant response rating, Sorghum” value (sorghum; PREEMERGENCE, Rate 50 g/ha) was 2. For the same compound, the “Plant response rating, Chickweed” value (chickweed; POSTEMERGENCE, Rate 10 g/ha) was 3, the “Plant response rating, Chickweed” value (chickweed; POSTEMERGENCE, Rate 50 g/ha) was 7 and the “Plant response rating, Chickweed” value (chickweed; PREEMERGENCE, Rate 50 g/ha) was 4. The “Plant response rating, Wheat” value (wheat; POSTEMERGENCE, Rate 10 g/ha) was 3, the “Plant response rating, Wheat” value (wheat; POSTEMERGENCE, Rate 50 g/ha) was 4 and the “Plant response rating, Wheat” value (wheat; PREEMERGENCE, Rate 50 g/ha) was 2. For the same compound, the “Plant response rating, Nutsedge” value (purple nutsedge; POSTEMERGENCE, Rate 10 g/ha) was 1, the “Plant response rating, Nutsedge” value (purple nutsedge; POSTEMERGENCE, Rate 50 g/ha) was 2 and the “Plant response rating, Nutsedge” value (purple nutsedge; PREEMERGENCE, Rate 50 g/ha) was 0. For the same compound, the “Plant response rating, Soybean” value (soybean; POSTEMERGENCE, Rate 10 g/ha) was 6, the “Plant response rating, Soybean” value (soybean; POSTEMERGENCE, Rate 50 g/ha) was 4 and the “Plant response rating, Soybean” value (soybean; PREEMERGENCE, Rate 50 g/ha) was 0. For the same compound, the “Plant response rating, Cotton” value (cotton; POSTEMERGENCE, Rate 10 g/ha) was 9, the “Plant response rating, Cotton” value (cotton; POSTEMERGENCE, Rate 50 g/ha) was 10 and the “Plant response rating, Cotton” value (cotton; PREEMERGENCE, Rate 10 g/ha) was 0. For the same compound, the “Plant response rating, Cotton” value (cotton; PREEMERGENCE, Rate 50 g/ha) was 5, the “Plant response rating, Wild oat” value (wild oat; POSTEMERGENCE, Rate 10 g/ha) was 2 and the “Plant response rating, Wild oat” value (wild oat; POSTEMERGENCE, Rate 50 g/ha) was 4. The “Plant response rating, Wild oat” value (wild oat; PREEMERGENCE, Rate 50 g/ha) was 3, the “Plant response rating, Barley” value (barley; POSTEMERGENCE, Rate 10 g/ha) was 3 and the “Plant response rating, Barley” value (barley; POSTEMERGENCE, Rate 50 g/ha) was 4. The “Plant response rating, Barley” value (barley; PREEMERGENCE, Rate 10 g/ha) was 0, the “Plant response rating, Barley” value (barley; PREEMERGENCE, Rate 50 g/ha) was 0 and the “Plant response rating, Cocklebur” value (cocklebur; POSTEMERGENCE, Rate 10 g/ha) was 6. The “Plant response rating, Cocklebur” value (cocklebur; POSTEMERGENCE, Rate 50 g/ha) was 8, the “Plant response rating, Cocklebur” value (cocklebur; PREEMERGENCE, Rate 10 g/ha) was 0 and the “Plant response rating, Cocklebur” value (cocklebur; PREEMERGENCE, Rate 50 g/ha) was 0. The “Plant response rating, Sugar beet” value (sugar beet; POSTEMERGENCE, Rate 10 g/ha) was 10, the “Plant response rating, Sugar beet” value (sugar beet; POSTEMERGENCE, Rate 50 g/ha) was 10 and the “Plant response rating, Sugar beet” value (sugar beet; PREEMERGENCE, Rate 50 g/ha) was 9. For the same compound, the “Plant response rating, Cheatgrass” value (cheatgrass; POSTEMERGENCE, Rate 10 g/ha) was 3, the “Plant response rating, Cheatgrass” value (cheatgrass; POSTEMERGENCE, Rate 50 g/ha) was 3 and the “Plant response rating, Cheatgrass” value (cheatgrass; PREEMERGENCE, Rate 10 g/ha) was 0. For the same compound, the “Plant response rating, Cheatgrass” value (cheatgrass; PREEMERGENCE, Rate 50 g/ha) was 2, the “Plant response rating, Giant foxtail” value (giant foxtail; POSTEMERGENCE, Rate 10 g/ha) was 3 and the “Plant response rating, Giant foxtail” value (giant foxtail; POSTEMERGENCE, Rate 50 g/ha) was 4. The “Plant response rating, Giant foxtail” value (giant foxtail; PREEMERGENCE, Rate 10 g/ha) was 0, the “Plant response rating, Giant foxtail” value (giant foxtail; PREEMERGENCE, Rate 50 g/ha) was 2 and the “Plant response rating, Rice” value (rice; POSTEMERGENCE, Rate 10 g/ha) was 3. The “Plant response rating, Rice” value (rice; POSTEMERGENCE, Rate 50 g/ha) was 4, the “Plant response rating, Rice” value (rice; PREEMERGENCE, Rate 50 g/ha) was 1 and the “Plant response rating, Corn” value (corn; POSTEMERGENCE, Rate 10 g/ha) was 3. The “Plant response rating, Corn” value (corn; POSTEMERGENCE, Rate 50 g/ha) was 3, the “Plant response rating, Corn” value (corn; PREEMERGENCE, Rate 50 g/ha) was 0 and the “Plant response rating, Bedstraw” value (bedstraw; POSTEMERGENCE, Rate 10 g/ha) was 7. The “Plant response rating, Bedstraw” value (bedstraw; POSTEMERGENCE, Rate 50 g/ha) was 9, the “Plant response rating, Bedstraw” value (bedstraw; PREEMERGENCE, Rate 50 g/ha) was 6 and the “Plant response rating, Morningglory” value (morningglory; POSTEMERGENCE, Rate 10 g/ha) was 7. The “Plant response rating, Morningglory” value (morningglory; POSTEMERGENCE, Rate 50 g/ha) was 7, the “Plant response rating, Morningglory” value (morningglory; PREEMERGENCE, Rate 50 g/ha) was 3 and the “Plant response rating, Wild buckwheat” value (wild buckwheat; POSTEMERGENCE, Rate 10 g/ha) was 9. The “Plant response rating, Wild buckwheat” value (wild buckwheat; POSTEMERGENCE, Rate 50 g/ha) was 10, the “Plant response rating, Wild buckwheat” value (wild buckwheat; PREEMERGENCE, Rate 50 g/ha) was 7 and the “Plant response rating, Velvetleaf” value (velvetleaf; POSTEMERGENCE, Rate 10 g/ha) was 7. The “Plant response rating, Velvetleaf” value (velvetleaf; POSTEMERGENCE, Rate 50 g/ha) was 8, the “Plant response rating, Velvetleaf” value (velvetleaf; PREEMERGENCE, Rate 50 g/ha) was 6 and the “Plant response rating, Lambsquarter” value (lambsquarters; POSTEMERGENCE, Rate 10 g/ha) was 10. The “Plant response rating, Lambsquarter” value (lambsquarters; POSTEMERGENCE, Rate 50 g/ha) was 10, the “Plant response rating, Lambsquarter” value (lambsquarters; PREEMERGENCE, Rate 50 g/ha) was 9 and the “Plant response rating, Blackgrass” value (blackgrass; POSTEMERGENCE, Rate 10 g/ha) was 3. For the same compound, the “Plant response rating, Blackgrass” value (blackgrass; POSTEMERGENCE, Rate 50 g/ha) was 3, the “Plant response rating, Blackgrass” value (blackgrass; PREEMERGENCE, Rate 10 g/ha) was 0 and the “Plant response rating, Blackgrass” value (blackgrass; PREEMERGENCE, Rate 50 g/ha) was 0. The “Plant response rating, Crabgrass” value (crabgrass; POSTEMERGENCE, Rate 10 g/ha) was 2, the “Plant response rating, Crabgrass” value (crabgrass; POSTEMERGENCE, Rate 50 g/ha) was 2 and the “Plant response rating, Crabgrass” value (crabgrass; PREEMERGENCE, Rate 10 g/ha) was 0. The “Plant response rating, Crabgrass” value (crabgrass; PREEMERGENCE, Rate 50 g/ha) was 0, the “Plant response rating, Barnyardgrass” value (barnyardgrass; POSTEMERGENCE, Rate 10 g/ha) was 3 and the “Plant response rating, Barnyardgrass” value (barnyardgrass; POSTEMERGENCE, Rate 50 g/ha) was 4. For the same compound, the “Plant response rating, Barnyardgrass” value (barnyardgrass; PREEMERGENCE, Rate 10 g/ha) was 0 and the “Plant response rating, Barnyardgrass” value (barnyardgrass; PREEMERGENCE, Rate 50 g/ha) was 0.
